Assay results as given in publication PMC9775191, “A Subset Screen of the Compounds Australia Scaffold Library Identifies 7-Acylaminodibenzoxazepinones as Potent and Selective Hits for Anti-Giardia Drug Discovery” (Biomedicines, 2022).

System: G. duodenalis BRIS/91/HEPU/1279
Assay: Primary Giardia screen at 10 µM (live-cell imaging, automated counting)
Type: cell-based, Giardia duodenalis
Conditions: for % Inhibition n=1 48h / % Inhibition n=1 24h: first singlicate assay; for % Inhibition n=2 24h / % Inhibition n=2 48h: re-assessment
Summary of the method: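 Compound added to 10 μM final in medium with 0.2% DMSO, one well each; plates then held in sealed chambers at 3% O2, 5% CO2 in N2; growth imaged and counted automatically at 24 and 48 h; values normalised to vehicle wells minus media blank.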

| SMILES | % Inhibition n=1 48h | further results |
| --- | --- | --- |
| O=S1(=O)C[C@H](NCc2ccccn2)[C@@H](S(=O)(=O)c2ccccc2)C1 [SN00786609] | 0.0% | – |
| Cc1csc(-n2nc(C)c(CC(=O)N3CCN(c4ccccc4)CC3)c2O)n1 [SN00786646] | 34.3% | – |
| Cc1nn(-c2nc(-c3ccccc3)cs2)c(O)c1CC(=O)N1CCN(c2ccc(F)cc2)CC1 [SN00786652] | 0.0% | – |
| COc1ccc(NC(=O)c2cc(C(F)(F)F)n(C)n2)cc1 [SN00786766] | 0.0% | – |
| Cc1ccc(C2=CC(c3ccccc3)n3nnnc3N2CC(=O)N2CCN(c3ccccc3)CC2)cc1 (stereo not drawn) [SN00786799] | 34.8% | – |
| NC(=O)C1=C(Nc2ccccc2)c2ccccc2S1(=O)=O [SN00786825] | 65.7% | Average % Inhibition 24h: 12.8%; % Inhibition n=1 24h: 25.7%; % Inhibition n=2 24h: 0.0%; Average % Inhibition 48h: 48.5%; % Inhibition n=2 48h: 31.3% |
| Cc1ccc2oc(N3CCN(C(=O)C(C)c4ccccc4)CC3)nc2n1 (stereo not drawn) [SN00786842] | 24.1% | – |
| Cc1cccc(NC(=O)N2CCN(c3cc(C)nc(N4CCCC4)n3)CC2)c1 [SN00786874] | 49.3% | Average % Inhibition 24h: 3.5%; % Inhibition n=1 24h: 7.1%; % Inhibition n=2 24h: 0.0%; Average % Inhibition 48h: 39.9%; % Inhibition n=2 48h: 30.5% |
| COc1ccc(NC(=O)N2CCN(c3cc(C)nc(N4CCOCC4)n3)CC2)cc1 [SN00786878] | 44.4% | – |
| C=CCn1c(C)c(CC(=O)Nc2cc(F)ccc2C)c(=O)n2nc(-c3ccccc3)nc12 [SN00786890] | 40.6% | – |
| O=C(Nc1ccccc1)c1cc(-c2cccs2)n(C2CCS(=O)(=O)C2)n1 (stereo not drawn) [SN00786904] | 1.7% | – |
| O=C(c1cccc(Br)c1)N1CCC(c2nc3ccccc3[nH]2)CC1 [SN00786922] | 0.0% | – |
| COc1ccccc1OC(C)C(=O)N1N=C2CCCCC2C1(O)C(F)(F)F (stereo not drawn) [SN00786959] | 13.1% | – |
| CCn1nnc(NCc2ccc(-c3ccccc3)cc2)n1 [SN00786962] | 14.2% | – |
| Cc1ccc2nc(-c3ccc(C)c(NC(=O)c4cccnc4)c3)[nH]c2c1 [SN00787045] | 8.2% | – |
| COc1ccccc1CCC(=O)N1CCN(c2ncnc3[nH]cnc23)CC1 [SN00787062] | 0.0% | – |
| Cn1nc(C(=O)NCCCN2CCN(c3ccccc3)CC2)c2c1-c1ccccc1OC2 [SN00787244] | 0.0% | – |
| O=C(Nc1nnc(S(=O)(=O)N2CCc3ccccc32)s1)c1ccccc1 [SN00787260] | 37.8% | – |
| Cn1c(C(=O)NCc2ccc(F)cc2)cc2c(=O)n3ccccc3nc21 [SN00787284] | 0.0% | – |
| CC1(C(=O)NCc2ccc(F)cc2)Cn2nc(-c3ccco3)cc2C(=O)N1Cc1ccccc1 (stereo not drawn) [SN00787370] | 13.6% | – |
| COc1ccc(N2C(=O)c3cc(-c4ccco4)nn3CC2(C)C(=O)NC(C)(C)C)cc1 (stereo not drawn) [SN00787372] | 16.8% | – |
| O=C(NCc1cccc(F)c1)C1CCCN(c2nc3ccccc3n3cccc23)C1 (stereo not drawn) [SN00787408] | 0.0% | – |

| SMILES | % Inhibition n=1 48h | further results |
| --- | --- | --- |
| CCn1cc2c(n1)-c1c(oc(C(=O)Nc3ccc(F)cc3)c1C)CC2 [SN00787412] | 6.9% | – |
| Cc1c(C(=O)NCCCN2CCOCC2)oc2c1-c1nn(Cc3ccc(Cl)cc3)cc1CC2 [SN00787421] | 1.0% | – |
| CC1(C(=O)NC2CCCCC2)Cn2c(cc3ccccc32)C(=O)N1Cc1ccco1 (stereo not drawn) [SN00787436] | 0.0% | – |
| O=C(Nc1cc(Cl)ccc1O)c1cc(-c2ccc(F)cc2)no1 [SN00787460] | 3.6% | – |
| CC(C(=O)NC1CCCCCC1)n1c(=O)c2cccn2c2cccnc21 (stereo not drawn) [SN00787599] | 8.7% | – |
| O=C([C@H]1C[C@H]2CCCN2[C@@]12C(=O)Nc1ccccc12)N1CCN(c2ccccc2)CC1 [SN00787657] | 16.0% | – |
| CC1CC(C)CN(CCCNC(=O)C2CC3CCCN3C23C(=O)Nc2ccccc23)C1 (stereo not drawn) [SN00787674] | 38.8% | – |
| CC1(C(=O)NC2CCCC2)Cn2c(ccc2-c2ccco2)C(=O)N1c1cccc(F)c1 (stereo not drawn) [SN00787693] | 11.7% | – |
| CC1(C(=O)NCc2ccccc2)Cn2c(ccc2-c2ccco2)C(=O)N1CCc1ccco1 (stereo not drawn) [SN00787709] | 0.0% | – |
| COc1ccc(-c2noc(CC(=O)N3CCN(c4ccccn4)CC3)n2)cc1 [SN00787724] | 23.4% | – |
| Cc1ccc(-n2nnc(-c3nc(-c4ccc5c(c4)OCO5)no3)c2N)cc1 [SN00787754] | 0.0% | – |
| CCCn1cc(S(=O)(=O)c2ccc(OC)cc2)c(=O)c2cc(F)c(N3CCC(C)CC3)cc21 [SN00787795] | 0.0% | – |
| CCCn1cc(S(=O)(=O)c2ccc(Cl)cc2)c(=O)c2cc(F)c(N3CCOCC3)cc21 [SN00787800] | 0.0% | – |
| COc1ccccc1N1CCN(C(=O)c2cc(C3CC3)n[nH]2)CC1 [SN00787811] | 0.0% | – |
| CCCCN(CC)CCNC(=O)C1=C(C)C(=O)OC12CCN(CC)CC2 [SN00787839] | 0.0% | – |
| CC(=O)N1CCC2(CC1)OC(=O)C(C)=C2C(=O)NC1CC1 [SN00787857] | 0.0% | – |
| CC1(C(=O)NC2CCCCCCC2)CN(S(C)(=O)=O)CC(=O)N1c1ccc(F)cc1 (stereo not drawn) [SN00787900] | 11.9% | – |
| CC1Cc2cc(S(=O)(=O)N3CCn4c3nc3ccccc34)ccc2N1C(=O)C1CCC1 (stereo not drawn) [SN00788031] | 10.8% | – |
| CC1CC(C)CN(C(=O)Cn2cnc3c(nc4n3CCCCC4)c2=O)C1 (stereo not drawn) [SN00788055] | 0.0% | – |
| Cc1ccc(NC(=O)Cn2nnc(-c3nc(-c4ccccc4)no3)c2N)cc1C [SN00788081] | 2.5% | – |
| Cc1ccc(NC(=O)Cn2nnc(-c3nc(-c4ccncc4)no3)c2N)cc1 [SN00788097] | 7.5% | – |
| CCC1Cn2c(C(=O)NCCN(C)C3CCCCC3)cc3cccc(c32)O1 (stereo not drawn) [SN00788158] | 54.5% | Average % Inhibition 24h: 13.9%; % Inhibition n=1 24h: 11.2%; % Inhibition n=2 24h: 16.5%; Average % Inhibition 48h: 53.7%; % Inhibition n=2 48h: 52.9% |

| SMILES | % Inhibition n=1 48h | further results |
| --- | --- | --- |
| COc1cccc(Nc2nc(N3CCN(c4ccccc4)CC3)nc3c2cnn3C)c1 [SN00788187] | 5.8% | – |
| COc1ccc(-c2cc(C(=O)N(C)Cc3ccco3)[nH]n2)cc1 [SN00788220] | 44.3% | – |
| CCN(Cc1ccccc1)C(=O)c1cc(-c2ccccc2)n[nH]1 [SN00788230] | 36.1% | – |
| CN1C(=O)c2cc(C(=O)NCCCc3ccccc3)nn2CC1(C)C(=O)NC1CCCC1 (stereo not drawn) [SN00788236] | 0.6% | – |
| O=C(NCCCN1CCN(c2ccccc2)CC1)c1noc2c1CCCCC2 [SN00788368] | 9.7% | – |
| Cc1oc2ncn(C(C)c3ccccc3)c(=O)c2c1C(=O)Nc1ccc(S(N)(=O)=O)nc1 (stereo not drawn) [SN00788415] | 0.0% | – |
| Cc1ccccc1NC(=O)c1c(C)oc2ncnc(N3CCCCC3)c12 [SN00788425] | 15.9% | – |
| Cc1nc(N2CCOCC2)c2c(C(=O)N3CCCC3)c(C)oc2n1 [SN00788445] | 0.0% | – |
| CCCCN(CCCC)S(=O)(=O)c1ccc2c(c1)CCCC(=O)N2 [SN00788526] | 27.2% | – |
| O=C1CCCc2cc(S(=O)(=O)N3CCN(c4ccccc4)CC3)ccc2N1 [SN00788529] | 19.1% | – |
| Cc1noc2ncnc(N3CCCC(C(=O)NC4CCCCCC4)C3)c12 (stereo not drawn) [SN00788598] | 0.0% | – |
| Cc1noc2ncnc(N3CCCC(C(=O)N4CCCCCC4)C3)c12 (stereo not drawn) [SN00788609] | 0.0% | – |
| COc1cccc(C(=O)n2nc(-c3cccnc3)nc2NCc2ccc(C)cc2)c1 [SN00788624] | 24.5% | – |
| CC(=O)c1ccc(NC(=O)C2CC(=O)N=C(N3CCN(Cc4ccc5c(c4)OCO5)CC3)N2)cc1 (stereo not drawn) [SN00788633] | 6.8% | – |
| Cn1c(=O)c2c(-c3ccccc3)c(Nc3ccccc3)oc2n(C)c1=O [SN00788641] | 9.4% | – |
| COc1cc(-c2c(Nc3ccccc3)oc3c2c(=O)n(C)c(=O)n3C)cc(OC)c1OC [SN00788648] | 0.0% | – |
| COc1cc2ccccc2cc1C(=O)Nc1nc2c(s1)CN(Cc1ccccc1)CC2 [SN00788706] | 9.9% | – |
| Cc1cccc(N(C)c2ccc3cc(S(=O)(=O)N4CCCC4)ccc3n2)c1 [SN00788730] | 7.2% | – |
| Cc1ccsc1CCNC(=O)c1cnn2c(=O)c3c(n(C)c12)CCN(Cc1ccccc1)C3 [SN00788935] | 17.0% | – |
| Cc1ccc(-c2nc3ccccc3n2Cc2cccc(F)c2)o1 [SN00788939] | 16.3% | – |
| O=C(NCCC1=CCCCC1)c1cccn1-c1cccnc1 [SN00788993] | 14.0% | – |
| CC(=O)c1ccc(Nc2ncnc3c2c(C)c(C)n3-c2ccccc2)cc1 [SN00789011] | 48.7% | – |
